These results are taken from PMC9241669, “Allantodapsone is a Pan-Inhibitor of Staphylococcus aureus Adhesion to Fibrinogen, Loricrin, and Cytokeratin 10” (Microbiology Spectrum, 2022).

Where “and” joins values, the source holds several entries; their conditions need not be identical. Equal entries are not always repeated. Where two headings read alike, the source gives them in different places.

The test system of one data set is L. lactis ClfA. In words: Adhesion of L. lactis ClfA to immobilized fibrinogen. Type of data set: cell-based, Lactococcus lactis. As for the experimental part:
(§1) FIG 1 Allantodapsone inhibits S. aureus Newman adhesion to fibrinogen. Dose response curves for S. aureus Newman (A), L. lactis ClfA (B), and L. lactis ClfB (C) adhesion to fibrinogen. Fibrinogen was used to coat plates at 4°C overnight at 10 μg/mL. Wells were washed with PBS and blocked with 1% BSA. Washed bacteria (OD600 of 1) were mixed with the relevant concentration of allantodapsone or vehicle control (DMSO) for 5 min, and added to the wells, incubating for 2 h at 37°C. Adherent cells were washed, fixed, and stained with crystal violet, and wells further washed. The dye was dissolved in acetic acid and the absorbance measured at 570 nm. IC50 values were generated using GraphPad Prism 9.0 GraphPad software, San Diego, CA. Data are representative of three experiments with error presented as SEM.
(§2) Adhesion assays were carried out according to Hartford et al. ([37]). Briefly, plates were coated with 10 μg/mL fibrinogen (Calbiochem, Darmstadt, Germany) or 20 μg/mL fibronectin (Sigma-Aldrich, Ireland) for 2 h at 37°C or for 16 h at 4°C. Plates were blocked with 1% BSA at 37°C for 1 h and washed 3 times in PBS. Washed bacteria were incubated at 37°C for 2 h. […] Plates were read at 570 nm on a Wallac Victor2, (Shelton, CT, USA). The minimum adhesion inhibitory concentration (MAIC) was determined as the concentration inhibiting greater than 90% bacterial adhesion. […]

The test system of the next data set is L. lactis ClfB. In words: Adhesion of L. lactis ClfB to immobilized fibrinogen. Type of data set: cell-based, Lactococcus lactis. Here is the method:
as §1, §2

Another data set concerns the target recombinant ClfB N2N3 (Staphylococcus aureus, UniProt O86476). In words: ELISA of recombinant ClfB N2N3 binding to immobilized GST-L2v loricrin. More on the design: species or system S. aureus. As to conditions: allantodapsone 100 μM; ClfB 5 μM; P < 0.0001. As for the experimental part: (§3) FIG 4 Allantodapsone inhibits S. aureus adhesion to loricrin and cytokeratin 10. Dose-response curve for adhesion of S. aureus Newman to GST-L2v loricrin (A) and CK10 (C). (B) Inhibition of recombinant ClfB N2N3 binding to immobilized GST-L2v loricrin by allantodapsone. (D) Inhibition of S. aureus Newman adhesion to GST-L2v loricrin by allantodapsone derivatives. Purified GST-L2v or CK10 were used to coat plates at 4°C overnight. Wells were washed with PBS and blocked with 1% BSA. Washed bacteria (OD600 of 1) were mixed with allantodapsone or vehicle control before being added to the wells and incubated for 2 h at 37°C. Adherent cells were washed, fixed, and stained with crystal violet, and wells further washed. The dye was dissolved in acetic acid, and the absorbance measured at 570 nm. GST-L2v was used at 20 μM in A and D. CK10 was used at 10 nM. […] Bound ClfB was detected using peroxidase-conjugated anti-His monoclonal antibody in an ELISA. […]
Recombinant GST-tagged L2v loricrin (120 nM) was coated onto a microtiter plate (Nunc Maxisorb) in sodium carbonate buffer (15 mM Na2CO3, 35 mM NaHCO3, pH 9.6) for 16 h at 4°C. […] Bound ClfB was detected with peroxidase-conjugated anti-His monoclonal antibody in 1% (wt/vol) skimmed milk proteins in PBS. […] The reaction was stopped by the addition of 2 M H2S0_4 (50 μL/well), and the A450 was measured in a plate reader (Labsystems).
(In general: ELISA stands for enzyme-linked immunosorbent assay.)

The subject of a further data set is S. aureus Newman. In words: Adhesion of S. aureus Newman to cytokeratin 10 (CK10). As to conditions: CK10 10 nM. The data set is classed as cell-based, Staphylococcus aureus. Here is the method: as §3
Adhesion assays were carried out according to Hartford et al. ([37]). […] Plates were read at 570 nm on a Wallac Victor2, (Shelton, CT, USA). The minimum adhesion inhibitory concentration (MAIC) was determined as the concentration inhibiting greater than 90% bacterial adhesion.

The test system of the next data set is U-937 cells. Type of data set: cell-based, human. The settings on record: 100 μM, undifferentiated U-937 monocyte cells, n=2, preliminary. Here is the method:
V. Microbiology: Materials and Methods
The MTT toxicity assay (1) (Vybrant MTT Cell Proliferation Assay, Molecular Probes, Or, USA) was used to measure cytotoxicity. Myeloid lineage, U-937 cells (2) were grown in RPMI-1640 (Gibco) culture medium supplemented with 10% foetal calf serum, 1% L-glutamine and 1% Penicillin/Streptomycin (Gibco). U-937 cells were centrifuged and cells diluted with fresh medium containing 1.2 mM MTT solution to a concentration of (5-6 x 10^6 per mL) and incubated at 37 °C for 2 h. Cells were centrifuged and the pellet dissolved in DMSO. The absorbance was read at 490 nm using the Wallac Victor2, (Shelton, Connecticut, USA).
Platelet aggregation was performed in platelet rich plasma according to O’Brien et al.
S. aureus Newman (stationary phase) was washed and diluted to an OD600 of 2.5.
This was mixed with 10 mg/mL of fibrinogen in 1:1 ratio resulting in a final concentration 5 mg/mL fibrinogen. Fibrinogen -bacteria aggregates clump and settle at the bottom of the tube resulting in a clear solution. These were compared to the turbid bacterial suspension in buffer by visual inspection. […]
was tested for toxicity using the MTT assay (VybrantTM MTT Cell Proliferation Assay, Molecular Probes, OR, USA). 10% DMSO is used as a positive control in this assay.
Allantodapsone was incubated with undifferentiated U-937 monocyte cells at 100
µM. […]

Where [1] appears, read: Lactococcus lactis, read-out: IC50, inhibition of adhesion to fibrinogen.

recombinant ClfB N2N3, sequence (O86476 201-542): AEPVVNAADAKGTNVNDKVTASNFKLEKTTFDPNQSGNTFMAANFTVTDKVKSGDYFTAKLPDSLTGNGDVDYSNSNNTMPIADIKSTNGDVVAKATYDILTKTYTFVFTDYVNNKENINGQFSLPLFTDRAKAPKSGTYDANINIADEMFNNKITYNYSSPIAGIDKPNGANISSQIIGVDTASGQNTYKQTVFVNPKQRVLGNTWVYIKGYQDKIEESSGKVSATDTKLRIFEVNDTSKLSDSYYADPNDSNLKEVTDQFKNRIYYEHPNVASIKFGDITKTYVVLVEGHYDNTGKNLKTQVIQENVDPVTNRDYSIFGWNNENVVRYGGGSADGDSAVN

As a reminder, the IC50 is the point on the concentration scale where inhibition reaches its midpoint. For the compound `Nc1ccc(S(=O)(=O)c2ccc(NCN3C(=O)NC(=O)C(=O)C3=O)cc2)cc1` [Allantodapsone], the “minimum adhesion inhibitory concentration (MAIC)” value was 10 μM and 4.0 μg/mL in the data set with L. lactis ClfA (L. lactis ClfA, fibrinogen); 33 μM and 13.3 μg/mL in the data set with L. lactis ClfB (L. lactis ClfB, fibrinogen). For the same compound, the concentration for half-maximal inhibition (IC50) in the data set on L. lactis ClfA (setting [1]) was 3.8 µM; with L. lactis ClfB (setting [1]), 11 µM. Further, on recombinant ClfB N2N3, the “inhibition of recombinant ClfB binding to L2v loricrin” value is “inhibited”. Moreover, the “inhibition of adhesion to CK10” value with S. aureus Newman is on record as “dose dependent inhibition”. In addition, the results for the “toxic effect on human cells, MTT (words)” value in the data set with U-937 cells and in the data set on U-937 cells (listed as allantodapsone) were “no toxic effect” and “no toxic effects”, respectively.
